Experimental data taken from patent publication US20220168427A1 (Ranok Therapeutics (Hangzhou) Co. Ltd., priority 2019, published 2022).

Legend:
HSP90α = HSP90α (Homo sapiens, UniProt P07900); experiment: HSP90α Binding Fluorescent Polarization (FP) Assay; conditions: competition with FITC-geldanamycin; read-out: HSP90 Binding Potency
Outline: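 Duplicate wells held BSA buffer, FITC-geldanamycin tracer, compound (3-fold dilution plate spanning 40 μM–2.0 nM) and recombinant protein diluted to 28 μg/ml before addition. Polarization read at 30, 60 and 120 min, 25 °C. Background-corrected mP values gave IC50 through a four-parameter inhibitor-response fit.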

BRD4 (BD1+BD2) = molecular target: T1, BRD4 (BD1+BD2) (Homo sapiens, UniProt O60885); conditions: read-out: BRD4 Binding Potency
T1 construct: 1.8 μg/ml recombinant BRD4 (BD1+BD2 domains) protein

MV4-11 cells = experiment: MV4-11 Cell Cytotoxicity Assay; type: cell-based, human; conditions: human, MV4-11 cells, CCK-8
From the text: % Inhibition=100−(D−B)/(S−B)*100%.
S: The absorbance of the maximum (cells with DMSO)
B: The absorbance of the minimum (medium with DMSO)

Cc1sc2c(c1C)C(c1ccc(Cl)cc1)=N[C@@H](CC(=O)NCCOCCOc1ccc(-n3c(S)nnc3-c3cc(C(C)C)c(O)cc3O)cc1)c1nnc(C)n1-2 [Compound 33, (S)-2-(4-(4-chlorophenyl)-2,3,9-trimethyl-6H-thieno[3,2-f][1,2,4]triazolo[4,3-a][1,4]diazepin-6-yl)-N-(2-(2-(4-(3-(2,4-dihydroxy-5-isopropylphenyl)-5-mercapto-4H-1,2,4-triazol-4-yl)phenoxy)ethoxy)ethyl)acetamide]
IC50 (HSP90α): 100 to 1000 nM | IC50 (BRD4 (BD1+BD2)): 100 to 1000 nM | IC50 at 72 h (MV4-11 cells): 100 to 1000 nM

Cc1sc2c(c1C)C(c1ccc(Cl)cc1)=N[C@@H](CC(=O)NCCOCCOCCOc1ccc(-n3c(S)nnc3-c3cc(C(C)C)c(O)cc3O)cc1)c1nnc(C)n1-2 [Compound 34, (S)-2-(4-(4-chlorophenyl)-2,3,9-trimethyl-6H-thieno[3,2-f][1,2,4]triazolo[4,3-a][1,4]diazepin-6-yl)-N-(2-(2-(2-(4-(3-(2,4-dihydroxy-5-isopropylphenyl)-5-mercapto-4H-1,2,4-triazol-4-yl)phenoxy)ethoxy)ethoxy)ethyl)acetamide]
IC50 (HSP90α): > 1000 nM | IC50 (BRD4 (BD1+BD2)): > 1000 nM | IC50 at 72 h (MV4-11 cells): 100 to 1000 nM

Cc1sc2c(c1C)C(c1ccc(Cl)cc1)=N[C@@H](CC(=O)NCCOCCN1CCC(Cc3ccc(-n4c(O)nnc4-c4cc(C(C)C)c(O)cc4O)cc3)CC1)c1nnc(C)n1-2 [Compound 37, 2-((6S)-4-(4-chlorophenyl)-2,3,9-trimethyl-6H-thieno[3,2-f][1,2,4]triazolo[4,3-a][1,4]diazepin-6-yl)-N-(2-(2-(4-(4-(3-(2,4-dihydroxy-5-isopropylphenyl)-5-hydroxy-4H-1,2,4-triazol-4-yl)benzyl)piperidin-1-yl)ethoxy)ethyl)acetamide, trifluoroacetic acid]
IC50 (HSP90α): < 100 nM | IC50 (BRD4 (BD1+BD2)): < 100 nM | IC50 at 72 h (MV4-11 cells): 100 to 1000 nM

Cc1sc2c(c1C)C(c1ccc(Cl)cc1)=N[C@@H](CC(=O)N1CCN(Cc3ccc(-n4c(O)nnc4-c4cc(C(C)C)c(O)cc4O)cc3)CC1)c1nnc(C)n1-2 [Compound 38, 2-((6S)-4-(4-chlorophenyl)-2,3,9-trimethyl-6H-thieno[3,2-f][1,2,4]triazolo[4,3-a][1,4]diazepin-6-yl)-1-(4-(4-(3-(2,4-dihydroxy-5-isopropylphenyl)-5-hydroxy-4H-1,2,4-triazol-4-yl)benzyl)piperazin-1-yl)ethanone, trifluoroacetic acid]
IC50 (HSP90α): 100 to 1000 nM | IC50 (BRD4 (BD1+BD2)): > 1000 nM | IC50 at 72 h (MV4-11 cells): < 100 nM

Cc1sc2c(c1C)C(c1ccc(Cl)cc1)=N[C@@H](CC(=O)NCCc1ccc(-n3c(O)nnc3-c3cc(C(C)C)c(O)cc3O)cc1)c1nnc(C)n1-2 [Compound 39, 2-((6S)-4-(4-chlorophenyl)-2,3,9-trimethyl-6H-thieno[3,2-f][1,2,4]triazolo[4,3-a][1,4]diazepin-6-yl)-N-(4-(3-(2,4-dihydroxy-5-isopropylphenyl)-5-hydroxy-4H-1,2,4-triazol-4-yl)phenethyl)acetamide]
IC50 (HSP90α): 100 to 1000 nM | IC50 (BRD4 (BD1+BD2)): 100 to 1000 nM | IC50 at 72 h (MV4-11 cells): < 100 nM

Cc1sc2c(c1C)C(c1ccc(Cl)cc1)=N[C@@H](CC(=O)N1CCC(CN3CCN(c4ccc(-n5c(O)nnc5-c5cc(C(C)C)c(O)cc5O)cc4)CC3)CC1)c1nnc(C)n1-2 [Compound 41, (S)-2-(4-(4-chlorophenyl)-2,3,9-trimethyl-6H-thieno[3,2-f][1,2,4]triazolo[4,3-a][1,4]diazepin-6-yl)-1-(4-((4-(4-(3-(2,4-dihydroxy-5-isopropylphenyl)-5-hydroxy-4H-1,2,4-triazol-4-yl)phenyl)piperazin-1-yl)methyl)piperidin-1-yl)ethanone]
IC50 (HSP90α): 100 to 1000 nM | IC50 (BRD4 (BD1+BD2)): 100 to 1000 nM | IC50 at 72 h (MV4-11 cells): < 100 nM

Cc1sc2c(c1C)C(c1ccc(Cl)cc1)=N[C@@H](CC(=O)N1CCC(N3CCN(Cc4ccc(-n5c(O)nnc5-c5cc(C(C)C)c(O)cc5O)cc4)CC3)CC1)c1nnc(C)n1-2 [Compound 42, (S)-2-(4-(4-chlorophenyl)-2,3,9-trimethyl-6H-thieno[3,2-f][1,2,4]triazolo[4,3-a][1,4]diazepin-6-yl)-1-(4-(4-(4-(3-(2,4-dihydroxy-5-isopropylphenyl)-5-hydroxy-4H-1,2,4-triazol-4-yl)benzyl)piperazin-1-yl)piperidin-1-yl)ethan-1-one, trifluoroacetic acid]
IC50 (HSP90α): 100 to 1000 nM | IC50 (BRD4 (BD1+BD2)): 100 to 1000 nM | IC50 at 72 h (MV4-11 cells): < 100 nM

Cc1sc2c(c1C)C(c1ccc(Cl)cc1)=N[C@@H](CC(=O)N1CCC(N3CCN(c4ccc(-n5c(O)nnc5-c5cc(C(C)C)c(O)cc5O)cc4)CC3)CC1)c1nnc(C)n1-2 [Compound 43, 2-((6S)-4-(4-chlorophenyl)-2,3,9-trimethyl-6H-thieno[3,2-f][1,2,4]triazolo[4,3-a][1,4]diazepin-6-yl)-1-(4-(4-(4-(3-(2,4-dihydroxy-5-isopropylphenyl)-5-hydroxy-4H-1,2,4-triazol-4-yl)phenyl)piperazin-1-yl)piperidin-1-yl)ethanone, trifluoroacetic acid]
IC50 (HSP90α): 100 to 1000 nM | IC50 (BRD4 (BD1+BD2)): 100 to 1000 nM | IC50 at 72 h (MV4-11 cells): < 100 nM

Cc1sc2c(c1C)C(c1ccc(Cl)cc1)=N[C@@H](CC(=O)NCC1CCN(C(=O)C3CCN(Cc4ccc(-n5c(O)nnc5-c5cc(C(C)C)c(O)cc5O)cc4)CC3)C1)c1nnc(C)n1-2 (stereo partly drawn) [Compound 45, 2-((S)-4-(4-chlorophenyl)-2,3,9-trimethyl-6H-thieno[3,2-f][1,2,4]triazolo[4,3-a][1,4]diazepin-6-yl)-N-((1-(1-(4-(3-(2,4-dihydroxy-5-isopropylphenyl)-5-hydroxy-4H-1,2,4-triazol-4-yl)benzyl)piperidine-4-carbonyl)pyrrolidin-3-yl)methyl)acetamide, trifluoroacetic acid]
IC50 (HSP90α): < 100 nM | IC50 (BRD4 (BD1+BD2)): < 100 nM | IC50 at 72 h (MV4-11 cells): < 100 nM

Cc1sc2c(c1C)C(c1ccc(Cl)cc1)=N[C@@H](CC(=O)NCC(=O)NCC1CCN(C(=O)C3CCN(Cc4ccc(-n5c(O)nnc5-c5cc(C(C)C)c(O)cc5O)cc4)CC3)CC1)c1nnc(C)n1-2 [Compound 46, (S)-2-(4-(4-chlorophenyl)-2,3,9-trimethyl-6H-thieno[3,2-f][1,2,4]triazolo[4,3-a][1,4]diazepin-6-yl)-N-(2-(((1-(1-(4-(3-(2,4-dihydroxy-5-isopropylphenyl)-5-hydroxy-4H-1,2,4-triazol-4-yl)benzyl)piperidine-4-carbonyl)piperidin-4-yl)methyl)amino)-2-oxoethyl)acetamide, trifluoroacetic acid]
IC50 (HSP90α): < 100 nM | IC50 (BRD4 (BD1+BD2)): < 100 nM | IC50 at 72 h (MV4-11 cells): < 100 nM

Cc1sc2c(c1C)C(c1ccc(Cl)cc1)=N[C@@H](CC(=O)NCC(=O)NCCOc1ccc(-n3c(S)nnc3-c3cc(C(C)C)c(O)cc3O)cc1)c1nnc(C)n1-2 [Compound 48, (S)-2-(4-(4-chlorophenyl)-2,3,9-trimethyl-6H-thieno[3,2-f][1,2,4]triazolo[4,3-a][1,4]diazepin-6-yl)-N-(2-((2-(4-(3-(2,4-dihydroxy-5-isopropylphenyl)-5-mercapto-4H-1,2,4-triazol-4-yl)phenoxy)ethyl)amino)-2-oxoethyl)acetamide]
IC50 (HSP90α): < 100 nM | IC50 (BRD4 (BD1+BD2)): 100 to 1000 nM | IC50 at 72 h (MV4-11 cells): 100 to 1000 nM

Cc1sc2c(c1C)C(c1ccc(Cl)cc1)=N[C@@H](CC(=O)NCCOCCN1CCN(Cc3ccc(-n4c(O)nnc4-c4cc(C(C)C)c(O)cc4O)cc3)CC1)c1nnc(C)n1-2 [Compound 49, 2-((6S)-4-(4-chlorophenyl)-2,3,9-trimethyl-6H-thieno[3,2-f][1,2,4]triazolo[4,3-a][1,4]diazepin-6-yl)-N-(2-(2-(4-(4-(3-(2,4-dihydroxy-5-isopropylphenyl)-5-hydroxy-4H-1,2,4-triazol-4-yl)benzyl)piperazin-1-yl)ethoxy)ethyl)acetamide, trifluoroacetic acid, trifluoroacetic acid, trifluoroacetic acid, trifluoroacetic …]
IC50 (HSP90α): < 100 nM | IC50 (BRD4 (BD1+BD2)): 100 to 1000 nM | IC50 at 72 h (MV4-11 cells): < 100 nM

Cc1sc2c(c1C)C(c1ccc(Cl)cc1)=N[C@@H](CC(=O)NCCOc1cccc(CN(C)Cc3ccc(-n4c(O)nnc4-c4cc(C(C)C)c(O)cc4O)cc3)c1)c1nnc(C)n1-2 [Compound 50, 2-((6S)-4-(4-chlorophenyl)-2,3,9-trimethyl-6H-thieno[3,2-f][1,2,4]triazolo[4,3-a][1,4]diazepin-6-yl)-N-(2-(3-(((4-(3-(2,4-dihydroxy-5-isopropylphenyl)-5-hydroxy-4H-1,2,4-triazol-4-yl)benzyl)(methyl)amino)methyl)phenoxy)ethyl)acetamide, trifluoroacetic acid, trifluoroacetic acid, trifluoroacetic acid, trifluoroacetic …]
IC50 (HSP90α): 100 to 1000 nM | IC50 (BRD4 (BD1+BD2)): > 1000 nM | IC50 at 72 h (MV4-11 cells): < 100 nM

Cc1sc2c(c1C)C(c1ccc(Cl)cc1)=N[C@@H](CC(=O)NCCOCc1ccc(-n3c(O)nnc3-c3cc(C(C)C)c(O)cc3O)cc1)c1nnc(C)n1-2 [Compound 52, 2-((6S)-4-(4-chlorophenyl)-2,3,9-trimethyl-6H-thieno[3,2-f][1,2,4]triazolo[4,3-a][1,4]diazepin-6-yl)-N-(2-((4-(3-(2,4-dihydroxy-5-isopropylphenyl)-5-hydroxy-4H-1,2,4-triazol-4-yl)benzyl)oxy)ethyl)acetamide]
IC50 (HSP90α): < 100 nM | IC50 (BRD4 (BD1+BD2)): > 1000 nM | IC50 at 72 h (MV4-11 cells): 100 to 1000 nM
